From PubChem BioAssay AID743390 (Vanderbilt Specialized Chemistry Center, 2014)

Target: Phospholipase D1 (Homo sapiens) (UniProt Q13393)
Assay: purified PLD1 inhibitor potency, IC50, confirmation, biochemical, concentration response (AID 743390)
Conditions: purified human PLD1 enzyme activity assay

Sequence of Phospholipase D1 (Homo sapiens) (Q13393 whole entry, looked up): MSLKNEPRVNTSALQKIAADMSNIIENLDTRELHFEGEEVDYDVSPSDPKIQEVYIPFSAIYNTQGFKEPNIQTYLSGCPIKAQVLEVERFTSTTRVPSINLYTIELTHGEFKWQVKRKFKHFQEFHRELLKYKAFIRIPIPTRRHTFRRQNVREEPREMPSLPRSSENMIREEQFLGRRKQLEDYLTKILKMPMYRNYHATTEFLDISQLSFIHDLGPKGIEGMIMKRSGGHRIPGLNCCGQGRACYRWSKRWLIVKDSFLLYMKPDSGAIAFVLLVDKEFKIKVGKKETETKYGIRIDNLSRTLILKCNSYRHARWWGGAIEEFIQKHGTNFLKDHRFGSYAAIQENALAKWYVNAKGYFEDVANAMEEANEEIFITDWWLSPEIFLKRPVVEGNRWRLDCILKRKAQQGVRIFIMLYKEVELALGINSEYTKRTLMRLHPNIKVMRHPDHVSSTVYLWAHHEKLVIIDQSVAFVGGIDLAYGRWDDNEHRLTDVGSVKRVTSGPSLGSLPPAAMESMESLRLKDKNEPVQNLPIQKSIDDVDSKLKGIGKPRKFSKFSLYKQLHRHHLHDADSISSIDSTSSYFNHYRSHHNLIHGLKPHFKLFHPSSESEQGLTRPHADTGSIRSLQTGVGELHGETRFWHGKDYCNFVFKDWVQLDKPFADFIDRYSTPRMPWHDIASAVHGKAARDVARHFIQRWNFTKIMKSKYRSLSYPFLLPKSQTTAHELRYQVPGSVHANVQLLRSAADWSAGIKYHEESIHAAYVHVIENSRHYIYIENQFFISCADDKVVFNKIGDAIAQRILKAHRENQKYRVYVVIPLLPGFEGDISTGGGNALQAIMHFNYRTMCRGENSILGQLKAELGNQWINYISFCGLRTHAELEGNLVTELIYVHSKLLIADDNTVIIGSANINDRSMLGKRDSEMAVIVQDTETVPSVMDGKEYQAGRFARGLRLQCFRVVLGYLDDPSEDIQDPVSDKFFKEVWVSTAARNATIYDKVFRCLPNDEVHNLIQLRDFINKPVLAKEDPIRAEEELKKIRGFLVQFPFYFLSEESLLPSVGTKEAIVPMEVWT

Row | Compound | IC50 [µM]
1 | O=C(NCCN1CCC2(CC1)C(=O)NCN2Cc1cccnc1)c1ccc2ccccc2c1 | 20
2 | O=C(NCCN1CCC2(CC1)C(=O)NCN2Cc1cccnc1)c1cc2ccccc2o1 | 20
